ChEMBL document CHEMBL3046649, “Fungitoxic and Phytotoxic Activities of Cinnamic Acid Esters and Amides” (2000)

Key:
[1] = system: Brassica rapa subsp. chinensis; experiment: whole plant or invertebrate; assay type: functional; settings: 72 h, read-out: GI
Description: Phytotoxicity against Brassica rapa subsp. chinensis assessed as growth inhibition of hypocotyl at 100 ppm treated to seeds after 3 days

[2] = system: Brassica rapa subsp. chinensis; experiment: whole plant or invertebrate; assay type: functional; settings: 72 h, read-out: GI; remark: listed apart in the source
Description: Phytotoxicity against Brassica rapa subsp. chinensis assessed as growth inhibition of radicle at 100 ppm treated to seeds after 3 days

[3] = system: Athelia rolfsii; experiment: microbe, parasite or virus in culture; assay type: functional; settings: Agroathelia rolfsii, read-out: GI
Description: Fungitoxic activity against Athelia rolfsii assessed as mycelial growth inhibition at 100 ppm after 4 to 5 days by agar dilution method

[4] = system: Pythium; experiment: Fungitoxic activity against Pythium sp. assessed as mycelial growth inhibition at 10 ppm after 4 to 5 days by agar dilution method; settings: read-out: GI
[5] = system: Pythium; experiment: microbe, parasite or virus in culture; assay type: functional; settings: read-out: GI
Description: Fungitoxic activity against Pythium sp. assessed as mycelial growth inhibition at 100 ppm after 4 to 5 days by agar dilution method

[6] = system: Athelia rolfsii; experiment: Fungitoxic activity against Athelia rolfsii assessed as mycelial growth inhibition at 10 ppm after 4 to 5 days by agar dilution method; assay type: functional; settings: Agroathelia rolfsii; read-out: GI

| SMILES | inhibition of growth at 100 ppm [1] [%] | inhibition of growth at 100 ppm [2] [%] | inhibition of growth at 100 ppm [3] [%] | inhibition of growth at 10 ppm [4] [%] | inhibition of growth at 100 ppm [5] [%] | inhibition of growth at 10 ppm [6] [%] |
| --- | --- | --- | --- | --- | --- | --- |
| CCCNC(=O)/C=C/c1ccc(C(C)C)cc1 | 30 | 52 | 88 | 41 | 84 | 28 |
| Cc1cccc(C)c1NC(=O)/C=C/c1ccccc1 | 0 | 0 | 13 |  | 31 |  |
| CCc1ccccc1NC(=O)/C=C/c1ccccc1 | 0 | 21 | 19 |  | 26 |  |
| Cc1ccc(NC(=O)/C=C/c2ccccc2)c(C)c1 | 0 | 0 | 5 |  | 4 |  |
| Cc1cccc(NC(=O)/C=C/c2ccccc2)c1C | 32 | 56 | 12 |  | 16 |  |
| O=C(/C=C/c1ccc(Cl)cc1Cl)OCCOc1ccccc1 | 33 | 8 | 72 | 14 | 59 | 14 |
| CC(C)=CCC/C(C)=C/COC(=O)/C=C/c1ccc(Cl)cc1Cl | 26 | 1 | 30 |  | 24 |  |
| CCCCCNC(=O)/C=C/c1ccccc1 | 60 | 76 | 87 | 23 | 78 | 18 |
| CCCCCCCCCCNC(=O)/C=C/c1ccccc1 | 10 | 15 | 23 |  | 27 |  |
| CCc1cccc(NC(=O)/C=C/c2ccccc2)c1 | 2 | 66 | 53 | 31 | 74 | 35 |
| CCc1ccc(NC(=O)/C=C/c2ccccc2)cc1 | 10 | 20 | 53 |  | 34 |  |
| CC(C)=CCC/C(C)=C/COC(=O)/C=C/c1ccc(C(C)C)cc1 | 30 | 0 | 88 | 8 | 72 | 21 |
| Cc1ccc(OC(=O)/C=C/c2ccc(Cl)cc2)c(C(C)C)c1 | 41 | 18 | 41 |  | 13 |  |
| Cc1ccc(C(C)C)c(OC(=O)/C=C/c2ccc(Cl)cc2)c1 | 36 | 24 | 39 |  | 6 |  |
| O=C(/C=C/c1ccc(Cl)cc1)OCCOc1ccccc1 | 30 | 0 | 83 | 9 | 54 | 16 |
| CC(C)=CCC/C(C)=C/COC(=O)/C=C/c1ccc(Cl)cc1 | 41 | 48 | 94 | 9 | 86 | 17 |
| Cc1ccc(OC(=O)/C=C/c2ccc(Cl)cc2Cl)c(C(C)C)c1 | 32 | 0 | 67 |  | 15 | 21 |
| Cc1ccc(C(C)C)c(OC(=O)/C=C/c2ccc(Cl)cc2Cl)c1 | 33 | 0 | 33 |  | 29 |  |
| Cc1ccc(OC(=O)/C=C/c2ccc(C(C)C)cc2)c(C(C)C)c1 | 39 | 28 | 24 |  | 15 |  |
| Cc1ccc(C(C)C)c(OC(=O)/C=C/c2ccc(C(C)C)cc2)c1 | 42 | 30 | 0 |  | 2 |  |
| C=CCNC(=O)/C=C/c1ccccc1 | 63 | 64 | 90 | 20 | 52 | 6 |

| SMILES | inhibition of growth at 100 ppm [1] [%] | inhibition of growth at 100 ppm [2] [%] | inhibition of growth at 100 ppm [3] [%] | inhibition of growth at 10 ppm [4] [%] | inhibition of growth at 100 ppm [5] [%] | inhibition of growth at 10 ppm [6] [%] |
| --- | --- | --- | --- | --- | --- | --- |
| CC(C)=CCCC(C)CCOC(=O)/C=C/c1ccc(Cl)cc1Cl (centres undefined) [3,7-DIMETHYLOCT-6-ENYL 3-(2,4-DICHLOROPHENYL)ACRYLATE] | 25 | 0 | 15 |  | 0 |  |
| CC(C)CNC(=O)/C=C/c1ccc(Cl)cc1Cl [3-(2,4-DICHLOROPHENYL)-N-ISOBUTYLACRYLAMIDE] | 7 | 43 | 38 |  | 31 |  |
| CC(C)NC(=O)/C=C/c1ccc(Cl)cc1Cl [3-(2,4-DICHLOROPHENYL)-N-ISOPROPYLACRYLAMIDE] | 11 | 30 | 31 |  | 28 |  |
| CCCNC(=O)/C=C/c1ccc(Cl)cc1Cl [3-(2,4-DICHLOROPHENYL)-N-PROPYLACRYLAMIDE] | 18 | 26 | 43 |  | 29 |  |
| CCCCOC(=O)/C=C/c1ccccc1 [BUTYL CINNAMATE] | 5 | 0 | 42 |  | 17 |  |
| CC(C)OP(=O)(OC(C)C)SCc1ccccc1 [IPROBENFOS] |  |  | 100 | 42 | 89 | 69 |
| CC(C)COC(=O)/C=C/c1ccccc1 [ISOBUTYL CINNAMATE] | 40 | 0 | 42 |  | 57 |  |
| O=C(/C=C/c1ccccc1)NCc1ccc(Cl)cc1Cl [N-(2,4-DICHLOROBENZYL)CINNAMAMIDE] | 0 | 43 | 51 |  | 41 |  |
| O=C(/C=C/c1ccccc1)NCc1ccccc1Cl [N-(2-CHLOROBENZYL)CINNAMAMIDE] | 70 | 88 | 41 |  | 23 |  |
| O=C(/C=C/c1ccccc1)NCc1ccc(Cl)cc1 [N-(4-CHLOROBENZYL)CINNAMAMIDE] | 6 | 44 | 27 |  | 33 |  |
| CCCCNC(=O)/C=C/c1ccc(Cl)cc1Cl [N-BUTYL-3-(2,4-DICHLOROPHENYL)ACRYLAMIDE] | 17 | 49 | 16 |  | 9 |  |
| CCCCCCCCCCCCNC(=O)/C=C/c1ccccc1 [N-DODECYLCINNAMAMIDE] | 48 | 32 | 13 |  | 21 |  |
| CCCCCCCCCCCCCCCCNC(=O)/C=C/c1ccccc1 [N-HEXADECYLCINNAMAMIDE] | 20 | 75 | 0 |  | 12 |  |
| Cc1ccccc1NC(=O)/C=C/c1ccccc1 [N-O-TOLYLCINNAMAMIDE] | 9 | 39 | 49 | 18 | 52 |  |
| CCCCCCCCNC(=O)/C=C/c1ccccc1 [N-OCTYLCINNAMAMIDE] | 34 | 42 | 46 |  | 24 |  |
| Cc1ccc(NC(=O)/C=C/c2ccccc2)cc1 [N-P-TOLYLCINNAMAMIDE] | 24 | 57 | 47 | 35 | 59 |  |
| CCC(C)NC(=O)/C=C/c1ccc(Cl)cc1Cl (centres undefined) [N-SEC-BUTYL-3-(2,4-DICHLOROPHENYL)ACRYLAMIDE] | 21 | 41 | 31 |  | 23 |  |
| CC(C)(C)NC(=O)/C=C/c1ccc(Cl)cc1Cl [N-TERT-BUTYL-3-(2,4-DICHLOROPHENYL)ACRYLAMIDE] | 11 | 26 | 21 |  | 22 |  |
| CC(C)(C)NC(=O)/C=C/c1ccc(Cl)cc1 [N-TERT-BUTYL-3-(4-CHLOROPHENYL)ACRYLAMIDE] | 29 | 55 | 71 |  | 21 | 60 |
| CC(C)c1ccc(/C=C/C(=O)NC(C)(C)C)cc1 [N-TERT-BUTYL-3-(4-ISOPROPYLPHENYL)ACRYLAMIDE] | 7 | 43 | 31 | 45 | 62 |  |
| CCCOC/C(=N\c1ccc(Cl)cc1C(F)(F)F)n1ccnc1 [TRIFLUMIZOLE] |  |  | 100 | 71 | 94 | 64 |
